Assay results taken from PubChem BioAssay AID256 (DTP/NCI, 2004).
Where “and” joins values, the source holds several entries; their conditions need not be identical. Equal values may be shown once. Inconclusive results and toxic doses are left out.

Tested on: CD2F1 mice, L1210 leukemia ip, survival T/C
Test: NCI In Vivo Anticancer Drug Screen. Data for tumor model L1210 Leukemia (intraperitoneal) in CD2F1 (CDF1) mice
Details: higher = longer survival
Method: The antitumor activity of compounds was measured in mice bearing transplantable tumors. Survival or tumor size were measured and the results are expressed as the measurement made in the treated group (T) divided by the measurement made in the vehicle treated control group (C). The tumor model used in this assay is L1210 Leukemia (intraperitoneal) in CD2F1 (CDF1) mice

[1] = endpoint: mean survival time, dose: 100.0 mg/kg/injection, schedule: Q04DX003 (ip), vehicle: saline with Tween-80
[2] = endpoint: mean survival time, dose: 200.0 mg/kg/injection, schedule: Q04DX003 (ip), vehicle: saline with Tween-80
[3] = endpoint: mean survival time, dose: 400.0 mg/kg/injection, schedule: Q04DX003 (ip), vehicle: saline with Tween-80
[4] = endpoint: mean survival time, dose: 100.0 mg/kg/injection, schedule: Q01DX009 (ip), vehicle: saline with Tween-80
[5] = endpoint: mean survival time, dose: 200.0 mg/kg/injection, schedule: Q01DX009 (ip), vehicle: saline with Tween-80
[6] = endpoint: mean survival time, dose: 100.0 mg/kg/injection, schedule: Q04DX002 (ip), vehicle: saline with Tween-80
[7] = endpoint: mean survival time, dose: 200.0 mg/kg/injection, schedule: Q04DX002 (ip), vehicle: saline with Tween-80
[8] = endpoint: mean survival time, dose: 400.0 mg/kg/injection, schedule: Q01DX009 (ip), vehicle: saline with Tween-80
[9] = endpoint: mean survival time, dose: 400.0 mg/kg/injection, schedule: Q04DX002 (ip), vehicle: saline with Tween-80
[10] = endpoint: mean survival time, dose: 100.0 mg/kg/injection, schedule: Q04DX003 (ip), vehicle: Klucel (hydroxypropylcellulose) (HPC)
[11] = endpoint: median survival time, dose: 25.0 mg/kg/injection, schedule: Q01DX005 (ip), vehicle: saline with Tween-80
[12] = endpoint: median survival time, dose: 50.0 mg/kg/injection, schedule: Q01DX005 (ip), vehicle: saline with Tween-80
[13] = endpoint: median survival time, dose: 100.0 mg/kg/injection, schedule: Q01DX005 (ip), vehicle: saline with Tween-80
[14] = endpoint: median survival time, dose: 200.0 mg/kg/injection, schedule: Q01DX005 (ip), vehicle: saline with Tween-80

`c1ccc2c(c1)C1c3ccccc3C2c2ccccc21` was tested, and the T/C [1] was 95 % of control, the T/C [2] was 100 % of control and the T/C [3] was 94 % of control.
`CN(N=O)C(N)=O` was tested, and the T/C (endpoint: mean survival time, dose: 5.0 mg/kg/injection, schedule: Q03DX003 (ip), vehicle: saline) was 112 % of control, the T/C (endpoint: mean survival time, dose: 5.0 mg/kg/injection, schedule: Q04DX003 (ip), vehicle: saline) was 117 % of control and the T/C (endpoint: mean survival time, dose: 10.0 mg/kg/injection, schedule: Q01DX007 (ip), vehicle: saline) was 166 % of control. The T/C (endpoint: mean survival time, dose: 10.0 mg/kg/injection, schedule: Q01DX009 (ip), vehicle: saline) was 175 % of control, the T/C (endpoint: mean survival time, dose: 20.0 mg/kg/injection, schedule: Q01DX007 (ip), vehicle: saline) was 124 % of control and the T/C (endpoint: mean survival time, dose: 20.0 mg/kg/injection, schedule: Q03DX003 (ip), vehicle: saline) was 156 % of control. The T/C (endpoint: median survival time, dose: 12.0 mg/kg/injection, schedule: Q01DX009 (ip), vehicle: saline + alcohol) was 172 % of control, the T/C (endpoint: median survival time, dose: 14.0 mg/kg/injection, schedule: Q04DX003 (ip), vehicle: saline) was 113 % of control and the T/C (endpoint: median survival time, dose: 14.0 mg/kg/injection, schedule: Q07DX003 (ip), vehicle: saline + alcohol) was 106 % of control. For the same molecule, the T/C (endpoint: median survival time, dose: 20.0 mg/kg/injection, schedule: Q07DX003 (ip), vehicle: saline + alcohol) was 118 % of control, the T/C (endpoint: median survival time, dose: 26.0 mg/kg/injection, schedule: Q07DX003 (ip), vehicle: saline + alcohol) was 116 % of control and the T/C (endpoint: median survival time, dose: 33.0 mg/kg/injection, schedule: Q07DX003 (ip), vehicle: saline + alcohol) was 123 % of control. For the same molecule, the T/C (endpoint: median survival time, dose: 36.0 mg/kg/injection, schedule: Q04DX003 (ip), vehicle: saline + alcohol) was 151 % of control, the T/C (endpoint: median survival time, dose: 40.0 mg/kg/injection, schedule: Q04DX003 (ip), vehicle: saline) was 160 % of control and the T/C (endpoint: median survival time, dose: 50.0 mg/kg/injection, schedule: Q01DX009 (ip), vehicle: saline + alcohol) was 107 % of control. For the same molecule, the T/C (endpoint: median survival time, dose: 60.0 mg/kg/injection, schedule: Q04DX003 (ip), vehicle: saline + alcohol) was 157 % of control, the T/C (endpoint: median survival time, dose: 67.0 mg/kg/injection, schedule: Q04DX003 (ip), vehicle: saline) was 167 % of control and the T/C (endpoint: median survival time, dose: 100.0 mg/kg/injection, schedule: Q04DX003 (ip), vehicle: saline + alcohol) was 97 % of control.
With `CCOC(=O)c1cc(C)nc2c(Cl)cc(Cl)cc12` the T/C [4] was 87 % of control, the T/C [1] was 87 % of control and the T/C [5] was 87 % of control. The T/C [2] was 88 % of control and the T/C [3] was 86 % of control.
For `OCC1OC(n2ncc3c2ncn2ncnc32)C(O)C1O` (stereo not given), the T/C (endpoint: mean survival time, dose: 12.5 mg/kg/injection, schedule: Q01DX005 (ip), vehicle: water) was 90 % of control, the T/C (endpoint: mean survival time, dose: 25.0 mg/kg/injection, schedule: Q01DX005 (ip), vehicle: water) was 94 % of control and the T/C (endpoint: mean survival time, dose: 50.0 mg/kg/injection, schedule: Q01DX005 (ip), vehicle: water) was 101 % of control. The T/C (endpoint: mean survival time, dose: 100.0 mg/kg/injection, schedule: Q01DX005 (ip), vehicle: water) was 100 % of control and the T/C (endpoint: mean survival time, dose: 200.0 mg/kg/injection, schedule: Q01DX005 (ip), vehicle: water) was 113 % of control.
In the case of `CCC1(C)C(=O)c2ccccc2N(C)C1=O` (stereo not given), the T/C (endpoint: mean survival time, dose: 100.0 mg/kg/injection, schedule: Q01DX001 (ip), vehicle: saline with Tween-80) is reported as 95 % of control, the T/C [4] is reported as 93 % of control and the T/C [6] is reported as 103 % of control and 106 % of control. The T/C [1] was 97 % of control, the T/C (endpoint: mean survival time, dose: 200.0 mg/kg/injection, schedule: Q01DX001 (ip), vehicle: saline with Tween-80) was 100 % of control and the T/C [5] was 93 % of control and 102 % of control. The T/C [7] was 104 % of control and 110 % of control, the T/C [2] was 100 % of control and the T/C (endpoint: mean survival time, dose: 400.0 mg/kg/injection, schedule: Q01DX001 (ip), vehicle: saline with Tween-80) was 95 % of control. For the same molecule, the T/C [8] was 101 % of control and 102 % of control, the T/C [9] was 109 % of control and 110 % of control and the T/C [3] was 100 % of control.
`C#CCCCOC(=O)Nc1ccccc1` was tested, and the T/C [10] was 97 % of control and the T/C (endpoint: mean survival time, dose: 200.0 mg/kg/injection, schedule: Q04DX003 (ip), vehicle: Klucel (hydroxypropylcellulose) (HPC)) was 95 % of control.
`O=c1ccn2cnc3c(ncn3C3OC(CO)C(O)C3O)c2n1` (stereo not given) was tested, and the T/C (endpoint: median survival time, dose: 12.5 mg/kg/injection, schedule: Q01DX005 (ip), vehicle: saline with Tween-80) was 105 % of control, the T/C [11] was 98 % of control and the T/C [12] was 98 % of control. For the same molecule, the T/C [13] was 103 % of control and the T/C [14] was 103 % of control.
For `CCC1(C)CCC2C(=CCC3C(C)(C(=O)O)CCCC23C)C1` (stereo not given), the T/C [1] was 103 % of control, the T/C [2] was 88 % of control and the T/C [3] was 89 % of control.
With `CN(C)C(=O)Nc1cccc2ccccc12` the T/C [6] was 94 % of control, the T/C [7] was 105 % of control and the T/C [9] was 90 % of control.
For `NC(=O)c1[nH]cnc1O`, the T/C [11] was 109 % of control and 110 % of control, the T/C [12] was 113 % of control and 112 % of control and the T/C [13] was 116 % of control and 119 % of control. For the same molecule, the T/C (endpoint: median survival time, dose: 144.0 mg/kg/injection, schedule: Q01DX005 (ip), vehicle: saline with Tween-80) was 117 % of control, the T/C [14] was 118 % of control and 120 % of control and the T/C (endpoint: median survival time, dose: 400.0 mg/kg/injection, schedule: Q01DX005 (ip), vehicle: saline with Tween-80) was 120 % of control.
For `CC1OCOC(C)C1C` (stereo not given), the T/C (endpoint: mean survival time, dose: 50.0 mg/kg/injection, schedule: Q01DX005 (ip), vehicle: saline) was 108 % of control, the T/C (endpoint: mean survival time, dose: 50.0 mg/kg/injection, schedule: Q01DX009 (ip), vehicle: saline with Tween-80) was 91 % of control and the T/C (endpoint: mean survival time, dose: 50.0 mg/kg/injection, schedule: Q04DX002 (ip), vehicle: saline + alcohol) was 103 % of control. The T/C (endpoint: mean survival time, dose: 100.0 mg/kg/injection, schedule: Q01DX005 (ip), vehicle: saline) was 108 % of control, the T/C [4] was 91 % of control and the T/C (endpoint: mean survival time, dose: 100.0 mg/kg/injection, schedule: Q04DX002 (ip), vehicle: saline + alcohol) was 95 % of control. For the same molecule, the T/C (endpoint: mean survival time, dose: 200.0 mg/kg/injection, schedule: Q01DX005 (ip), vehicle: saline) was 108 % of control, the T/C [5] was 91 % of control and the T/C (endpoint: mean survival time, dose: 200.0 mg/kg/injection, schedule: Q04DX002 (ip), vehicle: saline + alcohol) was 88 % of control. The T/C (endpoint: mean survival time, dose: 400.0 mg/kg/injection, schedule: Q01DX005 (ip), vehicle: saline) was 102 % of control, the T/C [8] was 98 % of control and the T/C (endpoint: mean survival time, dose: 400.0 mg/kg/injection, schedule: Q04DX002 (ip), vehicle: saline + alcohol) was 95 % of control.
For `NC(N)=N/N=C/c1cc(Br)ccc1O`, the T/C (endpoint: mean survival time, dose: 37.5 mg/kg/injection, schedule: Q01DX009 (ip), vehicle: saline) was 105 % of control, the T/C (endpoint: mean survival time, dose: 37.5 mg/kg/injection, schedule: Q04DX003 (ip), vehicle: saline) was 110 % of control and the T/C (endpoint: mean survival time, dose: 75.0 mg/kg/injection, schedule: Q04DX003 (ip), vehicle: saline) was 114 % of control. The T/C (endpoint: mean survival time, dose: 150.0 mg/kg/injection, schedule: Q04DX003 (ip), vehicle: saline) was 108 % of control.
`Nc1ccc(OCC(O)CN2CCN(c3ccccc3)CC2)cc1` (stereo not given) was tested, and the T/C [6] was 94 % of control and the T/C [7] was 107 % of control.
`CC(C)(C)Nc1ccc([N+](=O)[O-])cc1Cl` was tested, and the T/C (endpoint: mean survival time, dose: 12.5 mg/kg/injection, schedule: Q01DX001 (ip), vehicle: DMSO) was 89 % of control, the T/C (endpoint: mean survival time, dose: 25.0 mg/kg/injection, schedule: Q01DX001 (ip), vehicle: DMSO) was 100 % of control and the T/C (endpoint: mean survival time, dose: 25.0 mg/kg/injection, schedule: Q04DX003 (ip), vehicle: Klucel (hydroxypropylcellulose) (HPC)) was 93 % of control. For the same molecule, the T/C (endpoint: mean survival time, dose: 50.0 mg/kg/injection, schedule: Q01DX001 (ip), vehicle: DMSO) was 103 % of control, the T/C (endpoint: mean survival time, dose: 50.0 mg/kg/injection, schedule: Q04DX003 (ip), vehicle: Klucel (hydroxypropylcellulose) (HPC)) was 94 % of control and the T/C [10] was 91 % of control.
For `O=c1[nH]cnc2c1ncn2C1OC(CO)C(O)C1O.O=c1[nH]cnc2c1ncn2C1OC(CO)C(O)C1O.[Cl][Pt][Cl]` (stereo not given), the T/C (endpoint: mean survival time, dose: 12.5 mg/kg/injection, schedule: Q01DX009 (ip), vehicle: water) was 103 % of control, the T/C (endpoint: mean survival time, dose: 25.0 mg/kg/injection, schedule: Q01DX009 (ip), vehicle: water) was 101 % of control and the T/C (endpoint: mean survival time, dose: 50.0 mg/kg/injection, schedule: Q01DX009 (ip), vehicle: water) was 101 % of control. For the same molecule, the T/C (endpoint: mean survival time, dose: 100.0 mg/kg/injection, schedule: Q01DX009 (ip), vehicle: water) was 101 % of control and the T/C (endpoint: mean survival time, dose: 200.0 mg/kg/injection, schedule: Q01DX009 (ip), vehicle: water) was 97 % of control.
`NC(=O)C[n+]1cccc(C(=O)Nc2ccccc2)c1` was tested, and the T/C (endpoint: mean survival time, dose: 100.0 mg/kg/injection, schedule: Q01DX009 (ip), vehicle: saline sonified) was 95 % of control and the T/C (endpoint: mean survival time, dose: 200.0 mg/kg/injection, schedule: Q01DX009 (ip), vehicle: saline sonified) was 89 % of control.
For `COC(=O)c1cncn1C(C)c1cccc2ccccc12` (stereo not given), the T/C [1] was 108 % of control and the T/C [2] was 100 % of control.
